Experimental findings from ChEMBL document CHEMBL1140303, “Pharmacophore, drug metabolism, and pharmacokinetics models on non-peptide AT1, AT2, and AT1/AT2 angiotensin II receptor antagonists” (J Med Chem, 2005) are described below.

Each structure is given as a SMILES string.

Data set [1] can be described thus: Volume distribution was determined. The settings on record: human, in vivo. In kind it is ADME, organism-based.
The target of data set [2] is T1, Type-1 angiotensin II receptor (Homo sapiens) (UniProt P30556).
T1 sequence (whole entry): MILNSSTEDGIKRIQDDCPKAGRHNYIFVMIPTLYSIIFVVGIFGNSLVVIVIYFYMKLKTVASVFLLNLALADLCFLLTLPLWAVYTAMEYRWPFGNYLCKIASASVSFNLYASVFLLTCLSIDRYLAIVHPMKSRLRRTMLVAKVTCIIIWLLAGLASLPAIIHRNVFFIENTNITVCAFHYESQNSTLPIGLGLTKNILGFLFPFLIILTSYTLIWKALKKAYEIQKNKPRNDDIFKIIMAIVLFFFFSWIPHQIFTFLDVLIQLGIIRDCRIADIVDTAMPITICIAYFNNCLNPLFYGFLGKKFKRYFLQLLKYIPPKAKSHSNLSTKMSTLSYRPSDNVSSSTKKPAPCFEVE
The data set is described as follows: Time to maximal plasma concentration of the drug in human.

Data set [3] can be described thus: Oral bioavailability. In kind it is ADME, organism-based. The settings on record: human, in vivo.
The target of data set [4] is T1, Type-1 angiotensin II receptor (Homo sapiens). The data set is described as follows: Binding affinity for AT1 receptor.
Data set [5] can be described thus: Percentage modification of drug adsorbed after administration to human. It counts as ADME.
Data set [6] in a line: Time required for elimination of 50% of the compound. In kind it is ADME. The settings on record: human.
Data set [7] addresses T1, Type-1 angiotensin II receptor (Homo sapiens).
Description: pKa value against human Angiotensin II receptor type 1
The target is the same in data set [8]. Description: Time to maximal effect against human Angiotensin II receptor type 1.

As a reminder, the Vd is a proportionality between amount in the body and measured concentration, not a real space. Read a high Vd as wide distribution into tissue. The term bioavailability denotes dose-corrected exposure relative to a reference, in per cent. Low values mean little systemic uptake, high ones much systemic uptake. The half-life is the time needed for the level to fall by half in the phase considered. A high value points to slow decline.

`CCCCC(=O)N(Cc1ccc(-c2ccccc2-c2nnn[nH]2)cc1)[C@H](C(=O)O)C(C)C`: the Vd in data set [1] was 0.22 L/kg. Moreover, the Tmax in data set [2] amounted to 4 h. Further, in data set [3], the bioavailability came out at 25%. Further, the Affinity in data set [4] amounted to 1.7 nM. Also, the “Modification of adsorbed drug” value in data set [5] came to 9%. In data set [6], this molecule gave a half-life of 6.1 h.

In turn, `CCCCc1ncc(/C=C(\Cc2cccs2)C(=O)O)n1Cc1ccc(C(=O)O)cc1` [EPROSARTAN] showed a pKa in data set [7] of 5. For the same molecule, the Vd in data set [1] was 0.16 L/kg. The Tmax in data set [2] amounted to 13 h. The molecule also displayed a bioavailability in data set [3] of 13%. This molecule registered an Affinity in data set [4] of 9.2 nM. Moreover, in data set [5], the “Modification of adsorbed drug” value is recorded as 20%. In data set [6], this molecule had a half-life of 7 h.

With `Cc1nc(C)c2c(O)cc(=O)n(Cc3ccc(-c4ccccc4-c4nn[nH]n4)cc3)c2n1`, in data set [2], the Tmax worked out at 1 h. This molecule displayed an Affinity in data set [4] of 0.4 nM.

`CCCCc1nc(Cl)c(CO)n1Cc1ccc(-c2ccccc2-c2nn[nH]n2)cc1` [LOSARTAN] gave a VD in data set [1] of 0.38 L/kg. The “Modification of adsorbed drug” value in data set [5] is 75%. Moreover, the half-life in data set [6] was 3.2 h.

In turn, `Cc1nc(C)c2c(n1)N(Cc1ccc(-c3ccccc3-c3nnn[nH]3)cc1)C(=O)CC2` [TASOSARTAN] showed a pKa in data set [7] of 5. In data set [2], the Tmax came out at 0.5 h. The molecule also returned a bioavailability in data set [3] of 60%. The Affinity in data set [4] amounted to 1.2 nM. Further, the “Modification of adsorbed drug” value in data set [5] was determined as 2%. In data set [6], this molecule had a half-life of 15 h.

On to `CCc1nc2c(C)cc(C)nc2n1Cc1ccc(-c2ccccc2-c2nn[nH]n2)cc1`, for which the Affinity in data set [4] amounted to 0.5 nM.

For `CCCCc1nc(Cl)c(CO)n1Cc1ccc(-c2ccccc2C(=O)O)cc1`, the Affinity in data set [4] worked out at 230 nM.

`CCCCc1nc(Cl)c(CO)n1Cc1ccc(-c2ccccc2-c2nnn[nH]2)cc1` displayed a pKa in data set [7] of 4.9. In addition, in data set [2], the Tmax worked out at 1 h. The same molecule came in with an Affinity in data set [4] of 6.4 nM.

In data set [6], `Cc1nc(C)c2c(O)cc(=O)n(Cc3ccc(-c4ccccc4-c4nnn[nH]4)cc3)c2n1` [ENOLTASOSARTAN] gave a half-life of 40 h.

Molecule `CCCCc1nc(Cl)c(C(=O)O)n1Cc1ccc(-c2ccccc2-c2nn[nH]n2)cc1` [CARBOXYLIC ACID METABOLITE] came in with a pKa in data set [7] of 2.8. In addition, the Tmax in data set [2] stood at 3 h. The molecule further displayed an Affinity in data set [4] of 1.3 nM. The molecule further showed a half-life in data set [6] of 6.4 h.

Molecule `CCCc1nc2c(C)cc(-c3nc4ccccc4n3C)cc2n1Cc1ccc(-c2ccccc2C(=O)O)cc1` showed a pKa in data set [7] of 4.5. Besides, the Vd in data set [1] was determined as 4.54 L/kg. Moreover, the Tmax in data set [2] came to 1 h. Also, the bioavailability in data set [3] is 58%. The Affinity in data set [4] stood at 1 nM. Further, the “Modification of adsorbed drug” value in data set [5] was found to be 16%. In addition, in data set [6], the half-life is 24 h.

With `CCOc1nc2cccc(C(=O)O)c2n1Cc1ccc(-c2ccccc2-c2nnn[nH]2)cc1`, the pKa in data set [7] was 3.9. The Tmax in data set [8] came to 4 h. For the same molecule, the bioavailability in data set [3] was 40%. The molecule further had an Affinity in data set [4] of 0.1 nM. For the same molecule, the “Modification of adsorbed drug” value in data set [5] was 20%. In data set [6], this molecule gave a half-life of 11 h.

Take `CCCCC1=NC2(CCCC2)C(=O)N1Cc1ccc(-c2ccccc2-c2nnn[nH]2)cc1` [IRBESARTAN]: the pKa in data set [7] was found to be 4.7. For the same molecule, in data set [1], the Vd came out at 0.9 L/kg. In addition, the Tmax in data set [2] was determined as 2.5 h. The same molecule gave a bioavailability in data set [3] of 70%. This molecule also came in with an Affinity in data set [4] of 1.3 nM. For the same molecule, the “Modification of adsorbed drug” value in data set [5] was determined as 20%. The half-life in data set [6] is 21 h.
